The source made the active and inactive calls. No cut-off for these calls is given here.

These results are taken from ChEMBL document CHEMBL5543068, “Mitochondrial targeting derivatives of honokiol enhanced selective antitumor activity in NCI-H446 cells and decreased in vivo toxicity in Caenorhabditis elegans” (Eur J Med Chem, 2024).

The nature of data set [1]: Cytotoxicity against human HL7702 cells assessed as reduction in cell viability incubated for 48 hrs by MTT assay. Format: toxicity, cell-based. As to conditions: HL7702 (L02) cells. (Formazan colour is commonly taken as a measure of viable cells.)
A short description of data set [2]: Cytotoxicity against HBE (human bronchial epithelial) cells assessed as reduction in cell viability incubated for 48 hrs by MTT assay. Type of data set: toxicity, cell-based.
The subject of a further data set is A549. Briefly: Antiproliferative activity against human A549 cells assessed as reduction in cell viability incubated for 48 hrs by MTT assay. Format: functional, cell-based. The conditions noted are these: A549, 48 h.
Data set [3] relates to NCI-H446. Briefly: Antiproliferative activity against human NCI-H446 cells assessed as reduction in cell viability incubated for 48 hrs by MTT assay. Format: functional, cell-based. As to conditions: NCI-H446, 48 h.
A further data set relates to HepG2. Briefly: Antiproliferative activity against human HepG2 cells assessed as reduction in cell viability incubated for 48 hrs by MTT assay. As to conditions: HepG2, 48 h. Type of data set: functional, cell-based.
Data set [4] deals with NCI-H446. Briefly: Induction of apoptosis in human NCI-H446 cells assessed as crumpled nuclei at 2 uM incubated for 24 hrs by DAPI staining based fluorescence inverted microscopic analysis. Format: functional, cell-based.

The term IC50 denotes the concentration needed to halve the response being measured. Turning to `C=CCc1ccc(OCCC)c(-c2ccc(OCCCCCC[n+]3ccc(/C=C/c4c[nH]c5ccccc45)cc3)c(CC=C)c2)c1`, the half-maximal inhibitory concentration (IC50) at 48 h in data set [1] is 1.85 µM; in data set [2], 7.78 µM. For the same compound, the results for the half-maximal inhibitory concentration (IC50) in the data set with A549, in the data set with NCI-H446 [3] and in the data set with HepG2 were 2.04 µM, 2.88 µM and 2.03 µM, respectively. Also, in the data set with NCI-H446 [4], the result was Active.
Turning to `C=CCc1ccc(OCCCCCCCCCC[n+]2ccc(/C=C/c3c[nH]c4ccccc34)cc2)c(-c2ccc(OCCC)c(CC=C)c2)c1`, the half-maximal inhibitory concentration (IC50) at 48 h in data set [1] worked out at 6.98 µM; in data set [2], 17.3 µM. Moreover, the results for the IC50 in the data set on A549, in the data set with NCI-H446 [3] and in the data set on HepG2 were 8.07 µM, 7.57 µM and 5.23 µM, respectively.
The corresponding values for `C=CCc1ccc(OC)c(-c2ccc(OCCCCCCOC(=O)Cc3c4[n+](cc5c(OC)c(OC)ccc35)CCc3cc5c(cc3-4)OCO5)c(CC=C)c2)c1` are 4.37 µM, 5.09 µM, 2.87 µM, 1.4 µM and 1.74 µM.
